Drawing on BindingDB's records for doi:10.1016/j.ejmech.2007.04.019 (The Hebrew University of Jerusalem, 2008), this text covers IC50 for one molecule.

In assay [1] the target is Prostaglandin G/H synthase 1 (Homo sapiens, UniProt P23219). As to the kind of experiment: Inhibition of cyclooxygenase-1.
Assay [2] has as its target T1, Prostaglandin G/H synthase 2 (Homo sapiens, UniProt P35354).
T1 sequence (P35354 whole entry): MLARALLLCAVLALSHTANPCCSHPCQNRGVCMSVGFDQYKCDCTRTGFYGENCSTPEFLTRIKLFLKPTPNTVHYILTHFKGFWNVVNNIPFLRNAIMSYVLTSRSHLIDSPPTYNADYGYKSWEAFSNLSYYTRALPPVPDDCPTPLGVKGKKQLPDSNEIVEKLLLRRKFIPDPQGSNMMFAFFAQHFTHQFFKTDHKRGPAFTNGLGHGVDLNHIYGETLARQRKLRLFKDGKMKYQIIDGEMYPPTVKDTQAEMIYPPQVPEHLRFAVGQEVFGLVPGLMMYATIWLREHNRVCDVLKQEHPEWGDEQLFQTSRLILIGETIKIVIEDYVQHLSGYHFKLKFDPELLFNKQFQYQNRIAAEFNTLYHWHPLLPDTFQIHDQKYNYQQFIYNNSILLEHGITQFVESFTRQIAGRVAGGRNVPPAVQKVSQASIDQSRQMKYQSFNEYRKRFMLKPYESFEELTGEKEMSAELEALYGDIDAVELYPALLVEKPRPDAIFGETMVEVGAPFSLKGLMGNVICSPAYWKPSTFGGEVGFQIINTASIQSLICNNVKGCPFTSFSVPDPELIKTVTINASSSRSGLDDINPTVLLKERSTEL
Nature of the assay: Inhibition of cyclooxygenase-2.

Structures are written as SMILES. pIC50: −log10 of the molar value.

Chain of Prostaglandin G/H synthase 1 (P23219 whole entry): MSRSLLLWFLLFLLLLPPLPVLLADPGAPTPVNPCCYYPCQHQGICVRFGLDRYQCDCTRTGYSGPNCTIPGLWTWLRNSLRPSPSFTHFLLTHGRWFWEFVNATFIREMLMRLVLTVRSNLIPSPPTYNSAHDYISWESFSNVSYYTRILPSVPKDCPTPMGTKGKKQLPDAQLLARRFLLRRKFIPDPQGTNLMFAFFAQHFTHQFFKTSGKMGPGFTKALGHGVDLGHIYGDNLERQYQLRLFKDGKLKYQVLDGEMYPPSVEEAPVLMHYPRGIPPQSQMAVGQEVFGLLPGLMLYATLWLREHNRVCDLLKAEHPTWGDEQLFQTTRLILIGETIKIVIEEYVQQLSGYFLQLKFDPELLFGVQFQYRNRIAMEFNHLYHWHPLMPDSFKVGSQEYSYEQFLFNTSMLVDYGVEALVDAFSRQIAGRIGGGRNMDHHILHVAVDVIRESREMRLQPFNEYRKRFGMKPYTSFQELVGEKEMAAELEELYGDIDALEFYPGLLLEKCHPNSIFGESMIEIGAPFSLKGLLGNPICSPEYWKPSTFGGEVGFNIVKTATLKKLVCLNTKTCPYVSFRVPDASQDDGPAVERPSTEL

One may read the pIC50 as the negative decadic logarithm of the IC50, by convention in mol/L. Read a high pIC50 as a small IC50. With `C=C[C@@H]1[C@@H](O)C[C@@H]2[C@]3(CC[C@]4(C)[C@@H]([C@H](C)CCC(OO)C(=C)C)CC[C@@]24C)C[C@]13CCC(=O)OC` (some centres not stated), the pIC50 was 4.36 in assay [1] and 5.33 in assay [2].
